Laboratory results as given in publication PMC12040169 (PLOS Biology, 2025).

Assay: in vitro
Settings: human, hela cells, % viability

## Cc1ccnc(SCc2cc(=O)c3c(=O)n(-c4ccccc4)[nH]c3[nH]2)n1 [CBK269875]
  viability at 28.5 h, 10 µM: 110%

## CCCC(=O)c1ccc(S(=O)(=O)N2CCN(Cc3c[nH]nc3-c3cccs3)CC2)cc1 [CBK063160]
  viability at 28.5 h, 10 µM: 79.6%

## Cc1nccn1C(=O)NC1CCCCC1 [CBK019187]
  viability at 28.5 h, 10 µM: 81.8%

## COc1ccc(S(=O)(=O)Nc2cc(N3CCCC3)c3occc3c2)cc1OC [CBK061975]
  viability at 28.5 h, 10 µM: 97.2%

## O=C(O)c1ccc(CNC(=O)c2ccc(Cl)c(S(=O)(=O)N3CCCC3)c2)cc1 [CBK297096]
  viability at 28.5 h, 10 µM: 95.7%

## Clc1ccc(COc2cncc(OC3CCN(CC4CC4)C3)n2)cc1Cl (stereo not shown) [CBK084443]
  viability at 28.5 h, 10 µM: 86.5%

## CN(C)c1ccc2cccc(O)c2n1 [CBK149729]
  viability at 28.5 h, 10 µM: 93.9%

## Cc1nc(C)c(CCC(=O)Nc2cccc(F)c2)c(=O)[nH]1 [CBK305026]
  viability at 28.5 h, 10 µM: 90.3%

## O=C(Nc1cccc2[nH]ccc12)c1ccc(Cl)cc1 [CBK159632]
  viability at 28.5 h, 10 µM: 91.7%

## O=S(=O)(Nc1ccc(C(O)(C(F)(F)F)C(F)(F)F)cc1)c1ccc(Cl)c(Cl)c1 [CBK062102]
  viability at 28.5 h, 10 µM: 111%

## CN(C)CCCNC(=O)CCc1ccccc1 [CBK263806]
  viability at 28.5 h, 10 µM: 93%

## CC(=O)Nc1cccc(-c2cnc(Nc3ccc(N4CCOCC4)cc3)c3nccn23)c1 [CBK091235]
  viability at 28.5 h, 10 µM: 99.9%

## O=C(O)CCSc1c[nH]c2ccccc12 [CBK262319]
  viability at 28.5 h, 10 µM: 94.5%

## COc1cc(NC(=O)C2CCCN2)ccc1-n1cccc1 (stereo not shown) [CBK282500]
  viability at 28.5 h, 10 µM: 85.4%

## O=C(NCC1c2ccccc2CCN1C(=O)CN1C(=O)c2ccccc2C1=O)C1CCCCC1 (stereo not shown) [CBK262582]
  viability at 28.5 h, 10 µM: 90.6%

## COc1ccc(CN2C(=O)COC[C@@H]2[C@H](O)c2ccc(NC(C)=O)cc2)cc1 [CBK289674]
  viability at 28.5 h, 10 µM: 95.6%

## Cc1ccc(C(=O)N2CN(C(=O)CNCC(C)C)CC2(C)C)cc1 [CBK089576C]
  viability at 28.5 h, 10 µM: 96%

## CCOC(=O)c1cnn(C)c1-c1ccc(F)cc1OC [CBK149233]
  viability at 28.5 h, 10 µM: 92.8%

## CC(Oc1cccc(Cl)c1)C(=O)NN (stereo not shown) [CBK261207]
  viability at 28.5 h, 10 µM: 90.1%

## COc1ccc(C(=O)Nc2nsc(-c3ccccc3)n2)cc1 [CBK113233]
  viability at 28.5 h, 10 µM: 97.2%

## CNc1nc2c(ncn2C2CC(O)C(CO)O2)c(=O)[nH]1 (stereo not shown) [CBK201312]
  viability at 28.5 h, 10 µM: 100%

## O=C(Cn1nnc(-c2ccc(CN3CCOCC3)cc2)n1)Nc1ccc(Br)cc1 [CBK127364]
  viability at 28.5 h, 10 µM: 94.1%

## O=C1N(c2cccc(Cl)c2)Cc2nc(=O)[nH]n21 [CBK288430]
  viability at 28.5 h, 10 µM: 85.1%

## O=C(C1CCCCC1)N1CCC(c2n[nH]c3ncccc23)CC1 [CBK284905]
  viability at 28.5 h, 10 µM: 85.7%

## OC(COc1ccc(F)cc1)CN1CCN(c2nc(-c3ccccc3)ns2)CC1 (stereo not shown) [CBK074698]
  viability at 28.5 h, 10 µM: 91.8%

## CCCC/C=C/c1cn2ccnc2c(N2CCOCC2)n1 [CBK038031]
  viability at 28.5 h, 10 µM: 100%

## O=C(Nc1cccc(-c2nc3ncccc3o2)c1)c1cccc(OCc2ccccc2)c1 [CBK263126]
  viability at 28.5 h, 10 µM: 86.2%

## CC(=O)N[C@@H](Cc1c[nH]cn1)C(=O)N1CC[C@H]2NC(=O)[C@H](Cc3ccccc3)NC(=O)C3(C/C=C/C[C@H]2C1)CCOCC3 [CBK292206]
  viability at 28.5 h, 10 µM: 116%

## O=C(O)c1cc(NCc2ccccc2)ccc1N1CCOCC1 [CBK287099]
  viability at 28.5 h, 10 µM: 101%

## COc1ccc(CCNC(=O)NS(=O)(=O)c2ccc(C)cc2)cc1OC [CBK300510]
  viability at 28.5 h, 10 µM: 88%

## CCc1c(O)c2ccccc2n(Cc2ccccc2)c1=O [CBK219367]
  viability at 28.5 h, 10 µM: 90%

## Cc1cccc(CC(=O)N2CCC(Cc3ccccc3-c3ccccc3C)(C(N)=O)CC2)c1 [CBK285728]
  viability at 28.5 h, 10 µM: 93.4%

## O=c1nc2c(cn1[C@H]1C[C@@H](O)[C@@H](CO)O1)Sc1ccccc1N2 [CBK201237]
  viability at 28.5 h, 10 µM: 100%

## CN(C)CCCN(Cc1ccco1)Cc1cccn1-c1ccccn1 [CBK283180]
  viability at 28.5 h, 10 µM: 99.8%

## COC(=O)c1cc(-c2ccccc2OCc2ccccc2)ccc1NC(=O)c1ccc(Cl)cc1Cl [CBK000415]
  viability at 28.5 h, 10 µM: 88.5%

## O=C(O)C1C2C=CC(O2)C1C(=O)NCC1CCCO1 (stereo not shown) [CBK286917]
  viability at 28.5 h, 10 µM: 92.7%

## Cc1ccccc1NC(=O)Cc1nc(CN2CCC3(CCOC3)C2)cs1 (stereo not shown) [CBK304164]
  viability at 28.5 h, 10 µM: 95.5%

## CCN(CCCNC(=O)c1cc(-c2cccnc2)nc2ccccc12)c1cccc(C)c1 [CBK294465]
  viability at 28.5 h, 10 µM: 86.7%

## CCC(CC)C(=O)N1CCCC(c2cc3cccnc3[nH]2)C1 (stereo not shown) [CBK284926]
  viability at 28.5 h, 10 µM: 100%

## COc1ccc(C2CCCC(N(CCN(C)C)C(=O)Nc3ccc(F)c(F)c3)C2)cc1OC (stereo not shown) [CBK059339C]
  viability at 28.5 h, 10 µM: 84.8%

## NC(=O)CN(CC(N)=O)S(=O)(=O)c1ccccc1 [CBK262490]
  viability at 28.5 h, 10 µM: 85.4%

## O=C(NCc1cc(C2CC2)[nH]n1)C1(c2ccccc2F)CC1 [CBK283140]
  viability at 28.5 h, 10 µM: 97.6%

## Cn1c(COc2ccc(Cl)cc2Cl)nnc1SCC(=O)N1c2ccccc2SC2C=CC=CC21 (stereo not shown) [CBK268359]
  viability at 28.5 h, 10 µM: 103%

## COc1ccc(C(=O)/C=C/c2cccs2)c(OC(=O)c2ccc([N+](=O)[O-])cc2)c1 [CBK264926]
  viability at 28.5 h, 10 µM: 118%

## C(=N\N1CCN(Cc2cccc3ccccc23)CC1)/c1ccncc1 [CBK263003]
  viability at 28.5 h, 10 µM: 94.6%

## O=C(O)CC(NC(=O)c1ccccc1)c1ccco1 (stereo not shown) [CBK268843]
  viability at 28.5 h, 10 µM: 87.4%

## O=C(Cn1cnc(-c2nccs2)n1)N1CCCCCC1 [CBK306165]
  viability at 28.5 h, 10 µM: 97.5%

## NC(CCCCNC(=O)c1ccccc1)C(=O)O (stereo not shown) [CBK261087]
  viability at 28.5 h, 10 µM: 97%

## COC(=O)Cc1ccc(NC(=S)Nc2ccc(N3CCOCC3)cc2)cc1 [CBK267211]
  viability at 28.5 h, 10 µM: 87.4%

## CN1CCC(N2CCN(C(=O)NCc3ccc4c(c3)OCO4)CC2)CC1 [CBK155885]
  viability at 28.5 h, 10 µM: 88.3%

## CCn1c(C)nc2cc(NC(=O)c3c4c(nn3C)CCCC4)ccc21 [CBK281831]
  viability at 28.5 h, 10 µM: 93.8%

## CC(=O)Nc1ccc(S(=O)(=O)Oc2ccc(/C=C3\SC(=N)NC3=O)cc2Cl)cc1 [CBK265357]
  viability at 28.5 h, 10 µM: 100%

## CCN(CC)c1c(C)nc2ccc(C(=O)NCCc3ccccn3)cn12 [CBK145951]
  viability at 28.5 h, 10 µM: 94.9%

## CN(C)S(=O)(=O)c1ccc(C(=O)Nc2ccc(N3CCOCC3)c(Cl)c2)cc1 [CBK267383]
  viability at 28.5 h, 10 µM: 87.7%

## O=C(O)CCc1nc2[nH]c(C(F)F)cc(=O)n2n1 [CBK286880]
  viability at 28.5 h, 10 µM: 98.6%

## CN1CCN(c2ccccc2NC(=O)c2cccc(OCc3ccccc3)c2)CC1 [CBK268345]
  viability at 28.5 h, 10 µM: 102%

## CCOC(=O)c1c(NC(=O)CSc2ccc(F)cc2)sc2c1CCCC2 [CBK266506]
  viability at 28.5 h, 10 µM: 95.9%

## COc1ccc(C(C)c2cc3c(cc2OCCO)OCO3)c(F)c1 (stereo not shown) [CBK200111]
  viability at 28.5 h, 10 µM: 60.4%

## O=C(O)c1[nH]c(=O)[nH]c(=O)c1CN1CCCCC1 [CBK286688]
  viability at 28.5 h, 10 µM: 96.8%

## COc1cccc2c3c([nH]c12)C1(CCCN(CCc2ccc(F)cc2)C1)NCC3 (stereo not shown) [CBK039251]
  viability at 28.5 h, 10 µM: 97.9%

## COc1cccc(CSC2=C(C#N)C(c3cccs3)C(C(=O)Nc3ccccc3)=C(C)N2)c1 (stereo not shown) [CBK267458]
  viability at 28.5 h, 10 µM: 83.2%

## COc1nc(N(C)C)nc(N2CC(=O)N(c3ccccc3)C2=N)n1 [CBK269079]
  viability at 28.5 h, 10 µM: 87.6%

## O=C(c1cnn(-c2ccc(Cl)cc2)c1C(F)(F)F)N1CCN(c2ncccn2)CC1 [CBK107448]
  viability at 28.5 h, 10 µM: 98%

## CN1C(=O)COc2ccccc2C/C=C/C[C@H]2CNCC[C@H]21 [CBK292076]
  viability at 28.5 h, 10 µM: 107%

## Cc1ccc(NC(=O)CN2C(=O)c3ccccc3C2=O)c(C(=O)O)c1 [CBK262837]
  viability at 28.5 h, 10 µM: 87.5%

## Cc1ccc(C(=O)NNC(=O)c2cccnc2)cc1 [CBK261045]
  viability at 28.5 h, 10 µM: 94%

## O=S(=O)(Nc1ccc(C(O)(C(F)(F)F)C(F)(F)F)cc1)c1ccc(N2CCOCC2)nc1 [CBK062100]
  viability at 28.5 h, 10 µM: 94.9%

## CCOC(=O)c1cnc(O/N=C(\N)c2ccc(C(C)(C)C)cc2)nc1C(F)(F)F [CBK022142]
  viability at 28.5 h, 10 µM: 103%

## COc1ccc(-c2c(-c3ccc(F)cc3)[nH]c3[nH]c(=O)[nH]c(=O)c23)cc1 [CBK288232]
  viability at 28.5 h, 10 µM: 111%

## CC(C)NC(=O)c1sc2ccccc2c1C1CN(Cc2cccc3ncccc23)CCO1 (stereo not shown) [CBK285879]
  viability at 28.5 h, 10 µM: 85.6%

## CC(=O)OC1CCn2c1nc1cc(C(F)(F)F)ccc12 (stereo not shown) [CBK115367]
  viability at 28.5 h, 10 µM: 75.1%

## COc1ccc(NS(=O)(=O)c2ccc3c(c2)oc(=O)c2cc(S(=O)(=O)Nc4ccc(OC)cc4)ccc23)cc1 [CBK268439]
  viability at 28.5 h, 10 µM: 104%

## CCc1onc(-c2ccccc2)c1C(=O)NCCO [CBK160434]
  viability at 28.5 h, 10 µM: 89.8%

## CN(C)C(=O)CN1C(=O)N2CCCN=C2c2ccc(Cl)cc21 [CBK284392]
  viability at 28.5 h, 10 µM: 98.2%

## O=S(=O)(c1ccc(Cl)s1)N1CCN(c2ccccn2)CC1 [CBK270305]
  viability at 28.5 h, 10 µM: 110%

## CCOc1ccccc1-c1ccccc1NC(=O)c1cc(=O)n(C)c2ccccc12 [CBK285843]
  viability at 28.5 h, 10 µM: 100%

## Cc1ccc(N2CCCC2=O)cc1S(=O)(=O)NC1C2CCCCC21 (stereo not shown) [CBK282840]
  viability at 28.5 h, 10 µM: 69%

## Cc1c(C)n(CC(O)CN2C(=O)c3ccccc3S2(=O)=O)c2ccccc12 (stereo not shown) [CBK263960]
  viability at 28.5 h, 10 µM: 88.2%

## CCc1nc(CN2CCN(c3ccc4nc(C)nn4n3)CC2)cs1 [CBK306285]
  viability at 28.5 h, 10 µM: 89.1%

## O=C(CCSc1nc(-c2ccco2)cc(C(F)(F)F)n1)Nc1ccc2c(c1)OCO2 [CBK267627]
  viability at 28.5 h, 10 µM: 104%

## O=c1[nH]c2cc(Cl)c(Br)nc2[nH]1 [CBK026531]
  viability at 28.5 h, 10 µM: 76.9%

## CC(=O)Nc1ccc(Nc2cc(-c3ccco3)ncn2)cc1 [CBK090719]
  viability at 28.5 h, 10 µM: 100%

## O=C(O)CCC(=O)Nc1ccc(Br)cc1C(=O)c1ccccc1 [CBK262610]
  viability at 28.5 h, 10 µM: 114%

## O=S(=O)(Nc1ccccn1)N1CCCCC1 [CBK269490]
  viability at 28.5 h, 10 µM: 92.3%

## CCn1c(C(C)Oc2ccc(Cl)cc2)n[nH]c1=S (stereo not shown) [CBK015099]
  viability at 28.5 h, 10 µM: 108%

## O=C(c1cccnc1)N1CCN(S(=O)(=O)c2ccccc2[N+](=O)[O-])CC1 [CBK264227]
  viability at 28.5 h, 10 µM: 97%

## O=C(CCCN1C(=O)c2ccccc2C1=O)Nc1ccc(C(=O)O)cc1 [CBK287043]
  viability at 28.5 h, 10 µM: 94.2%

## O=C(O)c1cc(S(=O)(=O)Nc2ccc3nc(N4CCCC4)sc3c2)ccc1Br [CBK296710]
  viability at 28.5 h, 10 µM: 91.5%
